Source: patent publication US11471494B2, “Microorganisms programmed to produce immune modulators and anti-cancer therapeutics in tumor cells” (Synlogic Operating Company, Inc., priority 2017, dated 2022)

Key:
kynurenine = test: Tumoral kynurenine levels, CT26 murine tumor model (Example 13); format: in vivo, mouse; details: Study 2; INCB024360 oral gavage twice daily
CTLA-4 [1] = molecular target: CTLA-4 (Mus musculus, UniProt P09793); details: CTLA-4 from mice; cited from earlier work
CTLA-4 [2] = molecular target: T1, CTLA-4 (Oryctolagus cuniculus, UniProt P42072); details: CTLA-4 from rabbits; cited from earlier work
T1 sequence (P42072 36-223): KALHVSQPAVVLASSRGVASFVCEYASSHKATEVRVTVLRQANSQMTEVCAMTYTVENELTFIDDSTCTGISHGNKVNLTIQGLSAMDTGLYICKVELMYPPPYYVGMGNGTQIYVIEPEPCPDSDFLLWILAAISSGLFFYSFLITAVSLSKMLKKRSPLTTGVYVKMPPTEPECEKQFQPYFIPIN

CTLA-4 [3] = molecular target: T2, CTLA-4 (Rattus norvegicus, UniProt Q62859); details: CTLA-4 from rats; cited from earlier work
T2 sequence (Q62859 1-223): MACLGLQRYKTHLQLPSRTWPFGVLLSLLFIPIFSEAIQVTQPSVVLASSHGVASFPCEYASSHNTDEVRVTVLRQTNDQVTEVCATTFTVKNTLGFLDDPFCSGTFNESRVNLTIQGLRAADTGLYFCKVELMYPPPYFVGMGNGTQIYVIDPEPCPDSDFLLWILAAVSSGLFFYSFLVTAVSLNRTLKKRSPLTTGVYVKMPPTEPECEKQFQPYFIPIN

[4] = system: NK cells, γδT cells and CD8+ T cells; details: upon treatment; cited from earlier work

CTLA-4 (Mus musculus, UniProt P09793), sequence (P09793 36-223): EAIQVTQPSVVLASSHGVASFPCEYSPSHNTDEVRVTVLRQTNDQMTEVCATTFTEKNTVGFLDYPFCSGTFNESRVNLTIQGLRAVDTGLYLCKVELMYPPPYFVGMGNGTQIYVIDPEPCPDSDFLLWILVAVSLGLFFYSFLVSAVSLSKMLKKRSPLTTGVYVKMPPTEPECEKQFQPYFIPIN

NS(=O)(=O)NCCNc1nonc1C(=NO)Nc1ccc(F)c(Br)c1 [INCB024360]
Intratumoral kynurenine levels, SYN2028 compared with INCB024360 (kynurenine): similar

Ipilimumab
cross-reactivity with or binding to CTLA-4 (CTLA-4 [1]): did not show cross-reactivity with or binding to | cross-reactivity with or binding to CTLA-4 (CTLA-4 [2]): did not show cross-reactivity with or binding to | cross-reactivity with or binding to CTLA-4 (CTLA-4 [3]): did not show cross-reactivity with or binding to

recombinant human IL-15: recombinant human IL-15 of a first-in-human clinical trial
expansion of NK cells [4]: 10 fold | proliferation of γδT cells and CD8+ T cells [4]: significantly increased
